Assay results: ChEMBL document CHEMBL3885881, “DrugMatrix”

Species: Rattus norvegicus
Experiment: DrugMatrix - Regimen: Daily Repeat
Format: toxicity, organism-based, Sprague-Dawley
Parameters: regimen Daily Repeat, gender Male, age 6-8 weeks
Conditions: in vivo, po, route oral GAVAGE, […]; for URIC ACID / ALANINE AMINOTRANSFERASE / ALBUMIN / ALKALINE PHOSPHATASE / ASPARTATE AMINOTRANSFERASE / BLOOD UREA NITROGEN / CARBON DIOXIDE / CHLORIDE / CREATINE PHOSPHOKINASE / CREATININE / GLUCOSE / LACTATE DEHYDROGENASE / LIPASE / PHOSPHORUS / POTASSIUM / SODIUM / TOTAL BILIRUBIN / TOTAL PROTEIN / CHOLESTEROL: tissue Plasma; for ABSOLUTE BASOPHIL / ABSOLUTE EOSINOPHIL / ABSOLUTE LYMPHOCYTE / ABSOLUTE MONOCYTE / ABSOLUTE SEGMENTED NEUTROPHIL / BASOPHIL / EOSINOPHIL / ERYTHROCYTE COUNT / HEMATOCRIT / HEMOGLOBIN / LEUKOCYTE COUNT / LYMPHOCYTE / MEAN CORPUSCULAR HEMOGLOBIN / MEAN CORPUSCULAR HEMOGLOBIN CONCENTRATION / MONOCYTE / NEUTROPHIL / NUCLEATED RED BLOOD CELLS / PLATELET COUNT: tissue Blood
[1] = 250 mg/kg, 120 h, dose level Low, time 5 day
[2] = 2500 mg/kg, 72 h, dose level High, time 3 day
[3] = 2500 mg/kg, 120 h, dose level High, time 5 day

Compound: Cc1noc(NS(=O)(=O)c2ccc(N)cc2)c1C [SULFISOXAZOLE]
- URIC ACID (250 mg/kg, 72 h, dose level Low, time 3 day): 1.8 mg/dL
- ABSOLUTE BASOPHIL [1]: 0 CELLS/uL
- ABSOLUTE EOSINOPHIL [1]: 0 CELLS/uL
- ABSOLUTE LYMPHOCYTE [1]: 9180.67 CELLS/uL
- ABSOLUTE MONOCYTE [1]: 0 CELLS/uL
- ABSOLUTE SEGMENTED NEUTROPHIL [1]: 986 CELLS/uL
- BASOPHIL [1]: 0%
- EOSINOPHIL [1]: 0%
- ERYTHROCYTE COUNT [1]: 5.62 x10E6/uL
- HEMATOCRIT [1]: 34.93%
- HEMOGLOBIN [1]: 13.27 G/DL
- LEUKOCYTE COUNT [1]: 10.17 x10E3/uL
- LYMPHOCYTE [1]: 90.67%
- MEAN CORPUSCULAR HEMOGLOBIN [1]: 23.63 pg
- MEAN CORPUSCULAR HEMOGLOBIN CONCENTRATION [1]: 38 G/DL
- MONOCYTE [1]: 0%
- NEUTROPHIL [1]: 9.33%
- NUCLEATED RED BLOOD CELLS [1]: 0 /100WBC
- PLATELET COUNT [1]: 1021 x10E3/uL
- ALANINE AMINOTRANSFERASE [1]: 64.33 u/L
- ALBUMIN [1]: 4 G/DL
- ALKALINE PHOSPHATASE [1]: 394 u/L
- ASPARTATE AMINOTRANSFERASE [1]: 103.67 u/L
- BLOOD UREA NITROGEN [1]: 15 mg/dL
- CARBON DIOXIDE [1]: 30.67 mmol/L
- CHLORIDE [1]: 101.67 MEQ/L
- CREATINE PHOSPHOKINASE [1]: 404 u/L
- CREATININE [1]: 0.18 mg/dL
- GLUCOSE [1]: 149.33 mg/dL
- LACTATE DEHYDROGENASE [1]: 127.33 u/L
- LIPASE [1]: 11 u/L
- PHOSPHORUS [1]: 10.7 mg/dL
- POTASSIUM [1]: 5.9 MEQ/L
- SODIUM [1]: 143.87 MEQ/L
- TOTAL BILIRUBIN [1]: 0.17 mg/dL
- TOTAL PROTEIN [1]: 5.9 G/DL
- URIC ACID [1]: 1 mg/dL
- ABSOLUTE BASOPHIL [2]: 0 CELLS/uL
- ABSOLUTE EOSINOPHIL [2]: 133 CELLS/uL
- ABSOLUTE LYMPHOCYTE [2]: 8008.67 CELLS/uL
- ABSOLUTE MONOCYTE [2]: 152 CELLS/uL
- ABSOLUTE SEGMENTED NEUTROPHIL [2]: 3173 CELLS/uL
- BASOPHIL [2]: 0%
- EOSINOPHIL [2]: 1%
- ERYTHROCYTE COUNT [2]: 4.62 x10E6/uL
- HEMATOCRIT [2]: 28.6%
- HEMOGLOBIN [2]: 11.27 G/DL
- LEUKOCYTE COUNT [2]: 11.47 x10E3/uL
- LYMPHOCYTE [2]: 67%
- MEAN CORPUSCULAR HEMOGLOBIN [2]: 24.33 pg
- MEAN CORPUSCULAR HEMOGLOBIN CONCENTRATION [2]: 39.47 G/DL
- MONOCYTE [2]: 1%
- NEUTROPHIL [2]: 31%
- NUCLEATED RED BLOOD CELLS [2]: 0 /100WBC
- PLATELET COUNT [2]: 1118.33 x10E3/uL
- ALANINE AMINOTRANSFERASE [2]: 65.33 u/L
- ALBUMIN [2]: 4 G/DL
- ALKALINE PHOSPHATASE [2]: 312 u/L
- ASPARTATE AMINOTRANSFERASE [2]: 109.67 u/L
- BLOOD UREA NITROGEN [2]: 13.67 mg/dL
- CARBON DIOXIDE [2]: 24.67 mmol/L
- CHLORIDE [2]: 98.33 MEQ/L
- CHOLESTEROL [2]: 78.33 mg/dL
- CREATINE PHOSPHOKINASE [2]: 1633.33 u/L
- CREATININE [2]: 0.24 mg/dL
- GLUCOSE [2]: 172.33 mg/dL
- LACTATE DEHYDROGENASE [2]: 198.67 u/L
- LIPASE [2]: 10.67 u/L
- PHOSPHORUS [2]: 11.6 mg/dL
- POTASSIUM [2]: 4.69 MEQ/L
- SODIUM [2]: 140.23 MEQ/L
- TOTAL BILIRUBIN [2]: 0.0667 mg/dL
- TOTAL PROTEIN [2]: 6.13 G/DL
- URIC ACID [2]: 1.5 mg/dL
- ABSOLUTE BASOPHIL [3]: 0 CELLS/uL
- ABSOLUTE EOSINOPHIL [3]: 0 CELLS/uL
- ABSOLUTE LYMPHOCYTE [3]: 10533.67 CELLS/uL
- ABSOLUTE MONOCYTE [3]: 131 CELLS/uL
- ABSOLUTE SEGMENTED NEUTROPHIL [3]: 502 CELLS/uL
- BASOPHIL [3]: 0%
- EOSINOPHIL [3]: 0%
- ERYTHROCYTE COUNT [3]: 5.59 x10E6/uL
- HEMATOCRIT [3]: 35.7%
- HEMOGLOBIN [3]: 13.8 G/DL
- LEUKOCYTE COUNT [3]: 11.17 x10E3/uL
- LYMPHOCYTE [3]: 94.33%
- MEAN CORPUSCULAR HEMOGLOBIN [3]: 24.7 pg
- MEAN CORPUSCULAR HEMOGLOBIN CONCENTRATION [3]: 38.63 G/DL
- MONOCYTE [3]: 1%
- NEUTROPHIL [3]: 4.67%
- NUCLEATED RED BLOOD CELLS [3]: 0 /100WBC
- PLATELET COUNT [3]: 1151.33 x10E3/uL
- ALANINE AMINOTRANSFERASE [3]: 87.67 u/L
- ALBUMIN [3]: 4.17 G/DL
- ALKALINE PHOSPHATASE [3]: 442.67 u/L
- ASPARTATE AMINOTRANSFERASE [3]: 84.33 u/L
- BLOOD UREA NITROGEN [3]: 19.33 mg/dL
- CARBON DIOXIDE [3]: 31 mmol/L
- CHLORIDE [3]: 101.67 MEQ/L
- CHOLESTEROL [3]: 73.33 mg/dL
- CREATINE PHOSPHOKINASE [3]: 296.67 u/L
- CREATININE [3]: 0.23 mg/dL
- GLUCOSE [3]: 139 mg/dL
- LACTATE DEHYDROGENASE [3]: 98 u/L
- LIPASE [3]: 11 u/L
- PHOSPHORUS [3]: 9.13 mg/dL
- POTASSIUM [3]: 5.93 MEQ/L
- SODIUM [3]: 145.57 MEQ/L
- TOTAL BILIRUBIN [3]: 0.1 mg/dL
- TOTAL PROTEIN [3]: 6.3 G/DL
- URIC ACID [3]: 0.97 mg/dL
